#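 In this assay, cells in 96-well plates receive the compound at five concentrations for 48 hours. Endpoints are linearly interpolated between the surrounding concentrations. TGI: concentration producing complete growth inhibition.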
# Columns and labels:
# Test in all cases: NCI tumour cell line growth inhibition, 48 h
# A549 NSCLC = system: A549 NSCLC
# MDA-MB-231 breast = system: MDA-MB-231 breast
# MCF7 breast = system: MCF7 breast
# CCRF-CEM leukemia = system: CCRF-CEM leukemia
# U251 CNS = system: U251 CNS
# COLO 205 colon = system: COLO 205 colon
# HS 578T breast = system: HS 578T breast
# T-47D breast = system: T-47D breast
# MOLT-4 leukemia = system: MOLT-4 leukemia
# A498 renal = system: A498 renal
# OVCAR-4 ovarian = system: OVCAR-4 ovarian
# NCI-H522 lung = system: NCI-H522 lung
# SNB-75 CNS = system: SNB-75 CNS
# CAKI-1 renal = system: CAKI-1 renal
# OVCAR-3 ovarian = system: OVCAR-3 ovarian
# ACHN renal = system: ACHN renal
# OVCAR-8 ovarian = system: OVCAR-8 ovarian
# KM12 colon = system: KM12 colon
# K-562 leukemia = system: K-562 leukemia
# HOP-62 NSCLC = system: HOP-62 NSCLC
# HT29 colon = system: HT29 colon
# RXF 393 renal = system: RXF 393 renal
# BT-549 breast = system: BT-549 breast
# SNB-19 CNS = system: SNB-19 CNS
# RPMI-8226 leukemia = system: RPMI-8226 leukemia
# PC-3 prostate = system: PC-3 prostate
# SW-620 colon = system: SW-620 colon
# MALME-3M melanoma = system: MALME-3M melanoma
# DU-145 prostate = system: DU-145 prostate
# M14 melanoma = system: M14 melanoma
# SF-295 CNS = system: SF-295 CNS
# HOP-92 NSCLC = system: HOP-92 NSCLC
# HCT-15 colon = system: HCT-15 colon
# EKVX NSCLC = system: EKVX NSCLC
# UO-31 renal = system: UO-31 renal
# SK-MEL-2 melanoma = system: SK-MEL-2 melanoma
# NCI/ADR-RES ovarian = system: NCI/ADR-RES ovarian
# UACC-62 melanoma = system: UACC-62 melanoma
# SK-MEL-28 melanoma = system: SK-MEL-28 melanoma
# MDA-MB-435 = system: MDA-MB-435
# TK-10 renal = system: TK-10 renal
# NCI-H226 lung = system: NCI-H226 lung
# LOX IMVI melanoma = system: LOX IMVI melanoma
# OVCAR-5 ovarian = system: OVCAR-5 ovarian
# SF-539 CNS = system: SF-539 CNS
# SF-268 CNS = system: SF-268 CNS
# NCI-H460 lung = system: NCI-H460 lung
# SK-MEL-5 melanoma = system: SK-MEL-5 melanoma
# HCT-116 colon = system: HCT-116 colon
# 786-0 renal = system: 786-0 renal
# MDA-N = system: MDA-N
# NCI-H23 lung = system: NCI-H23 lung
# IGROV1 ovarian = system: IGROV1 ovarian
# SK-OV-3 ovarian = system: SK-OV-3 ovarian
# UACC-257 melanoma = system: UACC-257 melanoma
# HL-60(TB) leukemia = system: HL-60(TB) leukemia
# SN12C renal = system: SN12C renal
# HCC-2998 colon = system: HCC-2998 colon
smiles,measurement,setting,value
C=CCNC(=S)N=Nc1c(O)n(CN2CCOCC2)c2ccc([N+](=O)[O-])cc12,TGI,A549 NSCLC,> 100 µM
same,TGI,MDA-MB-231 breast,> 100 µM
same,TGI,MCF7 breast,> 100 µM
same,TGI,CCRF-CEM leukemia,> 100 µM
same,TGI,U251 CNS,> 100 µM
same,TGI,COLO 205 colon,> 100 µM
same,TGI,HS 578T breast,> 100 µM
same,TGI,T-47D breast,95.1 µM
same,TGI,MOLT-4 leukemia,> 100 µM
same,TGI,A498 renal,65.6 µM
same,TGI,OVCAR-4 ovarian,> 100 µM
same,TGI,NCI-H522 lung,> 100 µM
same,TGI,SNB-75 CNS,88.3 µM
same,TGI,CAKI-1 renal,> 100 µM
same,TGI,OVCAR-3 ovarian,> 100 µM
same,TGI,ACHN renal,> 100 µM
same,TGI,OVCAR-8 ovarian,> 100 µM
same,TGI,KM12 colon,> 100 µM
same,TGI,K-562 leukemia,> 100 µM
same,TGI,HOP-62 NSCLC,> 100 µM
same,TGI,HT29 colon,> 100 µM
same,TGI,RXF 393 renal,> 100 µM
same,TGI,BT-549 breast,> 100 µM
same,TGI,SNB-19 CNS,> 100 µM
same,TGI,RPMI-8226 leukemia,> 100 µM
same,TGI,PC-3 prostate,> 100 µM
same,TGI,SW-620 colon,> 100 µM
same,TGI,MALME-3M melanoma,> 100 µM
same,TGI,DU-145 prostate,> 100 µM
same,TGI,M14 melanoma,> 100 µM
same,TGI,SF-295 CNS,> 100 µM
same,TGI,HOP-92 NSCLC,83.3 µM
same,TGI,HCT-15 colon,> 100 µM
same,TGI,EKVX NSCLC,> 100 µM
same,TGI,UO-31 renal,> 100 µM
same,TGI,SK-MEL-2 melanoma,> 100 µM
same,TGI,NCI/ADR-RES ovarian,> 100 µM
same,TGI,UACC-62 melanoma,> 100 µM
same,TGI,SK-MEL-28 melanoma,> 100 µM
same,TGI,MDA-MB-435,> 100 µM
same,TGI,TK-10 renal,93.1 µM
same,TGI,NCI-H226 lung,> 100 µM
same,TGI,LOX IMVI melanoma,> 100 µM
same,TGI,OVCAR-5 ovarian,> 100 µM
same,TGI,SF-539 CNS,> 100 µM
same,TGI,SF-268 CNS,> 100 µM
same,TGI,NCI-H460 lung,> 100 µM
same,TGI,SK-MEL-5 melanoma,84.6 µM
same,TGI,HCT-116 colon,> 100 µM
same,TGI,786-0 renal,> 100 µM
same,TGI,MDA-N,> 100 µM
same,TGI,NCI-H23 lung,> 100 µM
same,TGI,IGROV1 ovarian,> 100 µM
same,TGI,SK-OV-3 ovarian,> 100 µM
same,TGI,UACC-257 melanoma,> 100 µM
same,TGI,HL-60(TB) leukemia,> 100 µM
same,TGI,SN12C renal,> 100 µM
same,TGI,HCC-2998 colon,90.3 µM
N#CC(N)c1ccc(OCCCCCCCCCCOc2ccc(C(N)C#N)cc2)cc1 (stereo not drawn),TGI,A549 NSCLC,> 100 µM
same,TGI,MDA-MB-231 breast,> 100 µM
same,TGI,MCF7 breast,> 100 µM
same,TGI,CCRF-CEM leukemia,67.8 µM
same,TGI,U251 CNS,> 100 µM
same,TGI,COLO 205 colon,> 100 µM
same,TGI,HS 578T breast,> 100 µM
same,TGI,T-47D breast,> 100 µM
same,TGI,MOLT-4 leukemia,> 100 µM
same,TGI,A498 renal,> 100 µM
same,TGI,OVCAR-4 ovarian,> 100 µM
same,TGI,NCI-H522 lung,> 100 µM
same,TGI,CAKI-1 renal,> 100 µM
same,TGI,OVCAR-3 ovarian,> 100 µM
same,TGI,ACHN renal,> 100 µM
same,TGI,OVCAR-8 ovarian,> 100 µM
same,TGI,KM12 colon,> 100 µM
same,TGI,K-562 leukemia,> 100 µM
same,TGI,HT29 colon,> 100 µM
same,TGI,RXF 393 renal,> 100 µM
same,TGI,BT-549 breast,> 100 µM
same,TGI,SNB-19 CNS,> 100 µM
same,TGI,PC-3 prostate,> 100 µM
same,TGI,SW-620 colon,> 100 µM
same,TGI,MALME-3M melanoma,> 100 µM
same,TGI,DU-145 prostate,> 100 µM
same,TGI,M14 melanoma,> 100 µM
same,TGI,SF-295 CNS,> 100 µM
same,TGI,HOP-92 NSCLC,> 100 µM
same,TGI,HCT-15 colon,> 100 µM
same,TGI,EKVX NSCLC,> 100 µM
same,TGI,UO-31 renal,> 100 µM
same,TGI,SK-MEL-2 melanoma,> 100 µM
same,TGI,NCI/ADR-RES ovarian,> 100 µM
same,TGI,UACC-62 melanoma,> 100 µM
same,TGI,SK-MEL-28 melanoma,> 100 µM
same,TGI,MDA-MB-435,> 100 µM
same,TGI,TK-10 renal,> 100 µM
same,TGI,NCI-H226 lung,> 100 µM
same,TGI,LOX IMVI melanoma,> 100 µM
same,TGI,OVCAR-5 ovarian,> 100 µM
same,TGI,SF-539 CNS,> 100 µM
same,TGI,SF-268 CNS,> 100 µM
same,TGI,NCI-H460 lung,> 100 µM
same,TGI,SK-MEL-5 melanoma,> 100 µM
same,TGI,HCT-116 colon,> 100 µM
same,TGI,786-0 renal,> 100 µM
same,TGI,MDA-N,> 100 µM
same,TGI,NCI-H23 lung,> 100 µM
same,TGI,IGROV1 ovarian,> 100 µM
same,TGI,SK-OV-3 ovarian,> 100 µM
same,TGI,UACC-257 melanoma,> 100 µM
same,TGI,HL-60(TB) leukemia,> 100 µM
same,TGI,SN12C renal,> 100 µM
same,TGI,HCC-2998 colon,> 100 µM

# — PubChem BioAssay (NCI)
